Values of other authors in patent publication US20180318238A1, “METHODS FOR REDUCING SEQUELAE OF INTRA-DIALYTIC HYPOTENSION” (priority 2015, published 2018).

Settings: intravenous, dogs, all doses used; from WO 98/13036

S-ethylisothiouronium diethylphosphate
Effect on arterial blood pressure: pronounced hypertensive effect at all doses used
